Experimental data published in publication PMC4481774, “Discovery of a non-cationic cell penetrating peptide derived from membrane-interacting human proteins and its potential as a protein delivery carrier” (Scientific Reports, 2015).
Like-named read-outs stand apart in the source and are kept apart here. Where no end group is shown, it is not given here. The star is where a group is joined. FITC = O=C1OC2(c3ccc(O)cc3Oc3cc(O)ccc32)c2ccc(NC(=S)*)cc21

Tests used:
cells [1] = details: uptake kinetics of TAT; cited from earlier work
HeLa cells [2] = assay: Intracellular uptake of CPPs in the presence or absence of serum, flow cytometry; format: cell-based, Human; details: peptide 1 μM, with or without 10% mouse serum, 4 h
Method: Samples were prepared as described for cellular uptake above.

Raw 264.7 cells = assay: Immunogenicity assay (IL-6 release, ELISA); format: cell-based, Murine; details: 24 h; AA3H 10 μM or LPS 10 μg/mL; mouse IL-6 ELISA; average of three; non-treated control 20 pg/mL
Method: Raw 264.7 cells were seeded into 24-well plates and cultured for 24 h. Cells were grown to 80% confluence and treated with lipopolysaccharides (LPS, 10 μg/mL) as a positive control. After incubation of AA3H peptide (10 μM) with cells for 24 h, supernatants were transferred to 1.5 mL tubes and centrifuged at 10,000 × g for 10 min at 4 °C. For the detection of interleukin-6 (IL-6) a mouse IL-6 ELISA kit (Thermo Scientific, Waltham, MA, USA) was used. Results from triplicate experiments were analyzed by Prism software (GraphPad, La Jolla, CA, USA). Data are presented as mean ± standard deviation (SD).

HeLa cells [3] = assay: Cellular uptake of FITC-labeled CPPs by flow cytometry; format: cell-based, Human; details: for order of potency in intracellular translocation (dose-dependent uptake): 0, 0.5, 1, 2.5, 5 and 10 μM; for order of potency in intracellular translocation (dose-dependent uptake) / cellular uptake efficiency: average of three independent experiments; for cellular uptake efficiency: 1 μM peptide, flow cytometry MFI, serum-containing DMEM, 37 °C
Method: For assessing the uptake of CPP candidates by HeLa cells, cells were seeded onto 6-well plates (1.0 × 10^6 cells/well). […] Cells were washed two times with phosphate-buffered saline (PBS), incubated in trypsin-EDTA solution (0.01% trypsin) at 37 °C for 10 min to digest extracellular proteins, washed two times with ice-cold PBS, and finally resuspended in 500 μL of ice-cold PBS for flow cytometry assays. For endocytosis inhibitor treatments, cells were pre-incubated with various inhibitors (50 μg heparin, 50 μM CPZ, 100 μM CQ, 1 mM MβCD, 30 μg dynasore, or 50 μM EIPA) in serum-containing medium for 30 min before AA3H (1 μM) was added. The sample for flow cytometry analysis was prepared as described above. For the analysis of peptide internalization, a GUAVA flow cytometry system (Merck Millipore, Darmstadt, Germany) with the FL-1 channel for measuring fluorescence in GuavaSoft 2.6 was used according to the manufacturer’s instructions.

[4] = Liposome experiment (interaction of FITC-labeled AA3H with phospholipid liposomes); format: binding; details: liposomes in HBS pH 7.5, 4 h at room temperature, flow cytometric analysis (Supplementary Fig. S3)
Method: Liposome experiment. Phospholipids dissolved in chloroform (L-alpha-phosphatidylcholine: PC, L-alpha-phosphatidylserine: PS, and L-alpha-phosphatidylethanolamine: PE) were purchased 1 from Avanti Polar Lipids. Liposomes were prepared by following a reported procedure . After preparation of phospholipid mixtures with appropriate molar ratios (PC/PS: 8/2 and PC/PE/PS: 4/4/2), the mixtures were dried by removing the solvent. The residues were dissolved in HBS (20 mM HEPES/NaOH, pH 7.5, 100 mM NaCl, 0.02% (w/v) sodium azide) and vortexed to completely resuspend phospholipids. Then, the suspension was sonicated until to have clear solution. The prepared vesicles was incubated with AA3H-CPP (FITC labelled) for 4 h at room temperature and the mixture was centrifuged at 16,000×g for 10 min at 4°C before flow cytometric analysis.
Supplementary Fig. S3. (A) Sizes of liposomes determined by dynamic light scattering. (B) Flow cytometric analysis on the interaction between FITC-labeled AA3H and liposomes. […]

HeLa cells [5] = assay: Cellular uptake mechanism of AA3H (heparin, low temperature, endocytosis inhibitors), flow cytometry; format: cell-based, Human
Method: For assessing the uptake of CPP candidates by HeLa cells, cells were seeded onto 6-well plates (1.0 × 10^6 cells/well). After 24 h, cells were washed two times with serum-free DMEM and incubated with CPPs at indicated concentrations (0.1, 1, 10 μM) in serum-containing DMEM at 37 °C. Cells were washed two times with phosphate-buffered saline (PBS), incubated in trypsin-EDTA solution (0.01% trypsin) at 37 °C for 10 min to digest extracellular proteins, washed two times with ice-cold PBS, and finally resuspended in 500 μL of ice-cold PBS for flow cytometry assays. For endocytosis inhibitor treatments, cells were pre-incubated with various inhibitors (50 μg heparin, 50 μM CPZ, 100 μM CQ, 1 mM MβCD, 30 μg dynasore, or 50 μM EIPA) in serum-containing medium for 30 min before AA3H (1 μM) was added. The sample for flow cytometry analysis was prepared as described above. For the analysis of peptide internalization, a GUAVA flow cytometry system (Merck Millipore, Darmstadt, Germany) with the FL-1 channel for measuring fluorescence in GuavaSoft 2.6 was used according to the manufacturer’s instructions.

cells [6] = assay: Uptake kinetics (half-time of internalization); format: cell-based; details: uptake kinetics of AA3H
HeLa cells [7] = assay: Subcellular localization by confocal fluorescence microscopy; format: cell-based, Human; details: AA3H 1 μM, 4 h, organelle-specific staining
Method: To visualize the cellular uptake of a peptide using confocal fluorescence microscopy, HeLa cells were seeded onto confocal bottom dish 35-mm plates (SPL, Gyeonggi-do, Korea) and incubated with AA3H (1 μM) for 4 h. Lysosomes and nuclei of AA3H-treated cells were stained with LysoTracker (Life Technologies, Carlsbad, CA, USA; 1 μg/mL for 30 min) and Hoechst (1 μg/mL for 5 min), respectively. For staining ER and Golgi, CellLight Reagents BacMam 2.0 (Life Technologies, Carlsbad, CA, USA) were used. Cells were cultured in confocal dishes for 24 h, transfected with red fluorescence protein (RFP) for 24 h, and treated with AA3H (1 μM) for 4 h. After washing two times with PBS, the intracellular fluorescence of HeLa cells was imaged using confocal laser scanning microscopy (LSM 700, Carl Zeiss, Jena, Germany).

Substance: FITC-YGRKKRRQRRR [TAT47-58, widely used conventional CPP, TAT peptide of human immunodeficiency virus, FITC-labeled, reference compound]
- t0.5 (half-time of internalization) (cells [1]): 1 min
- delivery efficiency in the presence of serum (HeLa cells [2]): significantly lowered efficiency

Substance: lipopolysaccharide [LPS]
- IL-6 released into the culture medium (Raw 264.7 cells): 373 pg/mL

Substance: {FITC}-MAQVLRGTVT [AA5H, FITC-labeled N-terminus peptide of an annexin A isoform]
- order of potency in intracellular translocation (dose-dependent uptake) (HeLa cells [3]; HeLa cells, flow cytometry): AA3H > AA5H > AA8H > AA13H > AA4H
- cellular uptake efficiency (HeLa cells [3]; HeLa cells): significant cellular uptake efficiency

Substance: {FITC}-MASIWVGHRG [AA3H]
- order of potency in intracellular translocation (dose-dependent uptake) (HeLa cells [3]; HeLa cells, flow cytometry): AA3H > AA5H > AA8H > AA13H > AA4H
- cellular uptake efficiency (HeLa cells [3]; HeLa cells): significant cellular uptake efficiency
- cellular uptake compared with the fully cationic R9 peptide (HeLa cells [3]; HeLa cells (Supplementary Fig. S1A)): much lower cellular uptake
- uptake efficiency compared with TAT (HeLa cells [3]; HeLa cells, flow cytometry (Fig. 2C)): delivered into the cells better than TAT
- binding to phospholipids known to interact with annexin III [4]: found to also bind AA3H
- decrease of intracellular delivery after heparin sulfate (HeLa cells [5]; 50 μg/mL heparin sulfate 30 min pre-treatment, then AA3H 4 h, relative to delivery without heparin, average of three): 45%
- cellular uptake at 4 °C lower than at 37 °C (HeLa cells [5]; 4 °C for 2 h vs 37 °C control, flow cytometry): approximately 66%
- decrease of uptake with dynasore (HeLa cells [5]; 30-min pre-treatment, 30 μg dynasore, AA3H 1 μM): 57%
- decrease in uptake with chlorpromazine (CPZ) (HeLa cells [5]; 30-min pre-treatment, 50 μM CPZ, AA3H 1 μM, serum-containing medium): 23.5%
- effect of EIPA (macropinocytosis inhibitor) on peptide delivery (HeLa cells [5]; 30-min pre-treatment, 50 μM EIPA, AA3H 1 μM): significant inhibition of peptide delivery
- increase in mean fluorescence intensity with chloroquine (CQ) (HeLa cells [5]; 30-min pre-treatment, 100 μM CQ, AA3H 1 μM, ascribed to dequenching of fluorescein, not to uptake): 20.5%
- reduction of uptake with methyl-β-cyclodextrin (MβCD) (HeLa cells [5]; 30-min pre-treatment, 1 mM MβCD, AA3H 1 μM): 32%
- reduction of uptake with nystatin (NYS) (HeLa cells [5]; 30-min pre-treatment, AA3H 1 μM): 15%
- delivery efficiency in the presence of serum (HeLa cells [2]): not considerably affected
- t0.5 (half-time of internalization) (cells [6]): ~ 2 h
- subcellular localization (HeLa cells [7]): localized in the cytoplasm but not in the nucleus

Substance: {FITC}-MATKGGTVKA [AA4H, FITC-labeled N-terminus peptide of an annexin A isoform]
- order of potency in intracellular translocation (dose-dependent uptake) (HeLa cells [3]; HeLa cells, flow cytometry): AA3H > AA5H > AA8H > AA13H > AA4H
- cellular uptake efficiency (HeLa cells [3]; HeLa cells): significant cellular uptake efficiency

Substance: {FITC}-MAWWKSWIEQ [AA8H, FITC-labeled N-terminus peptide of an annexin A isoform]
- order of potency in intracellular translocation (dose-dependent uptake) (HeLa cells [3]; HeLa cells, flow cytometry): AA3H > AA5H > AA8H > AA13H > AA4H
- cellular uptake efficiency (HeLa cells [3]; HeLa cells): significant cellular uptake efficiency

Substance: {FITC}-MGNRHAKASS [AA13H, FITC-labeled N-terminus peptide of an annexin A isoform]
- order of potency in intracellular translocation (dose-dependent uptake) (HeLa cells [3]; HeLa cells, flow cytometry): AA3H > AA5H > AA8H > AA13H > AA4H
- cellular uptake efficiency (HeLa cells [3]; HeLa cells): significant cellular uptake efficiency

Substance: {FITC}-RRRQQQQQQRRR [PLP, protein linking peptide containing multiple arginine residues, FITC-labeled]
- cellular uptake of PLP-conjugated CPPs (HeLa cells [3]; flow cytometry, fluorescence label of the peptide (Fig. 8B)): not as high as with AA3H conjugation
